Data from patent US12649750B2, “Macrocyclic compounds, compositions, and methods of using thereof” (Sionna Therapeutics Inc., priority 2022, dated 2026).

Tests used:
[1] = target: T1, NBD1 (Homo sapiens, UniProt P13569); test: Aggregation analysis using differential static light scattering (DSLS), thermal stability of NBD1 (ΔTagg); assay type: binding; settings: ΔTagg versus DMSO control, NBD1 0.2 mg/ml
T1 construct: Purified recombinant NBD1 was produced using previously described methods; made in house
T1 sequence (P13569 423-646 limits assumed): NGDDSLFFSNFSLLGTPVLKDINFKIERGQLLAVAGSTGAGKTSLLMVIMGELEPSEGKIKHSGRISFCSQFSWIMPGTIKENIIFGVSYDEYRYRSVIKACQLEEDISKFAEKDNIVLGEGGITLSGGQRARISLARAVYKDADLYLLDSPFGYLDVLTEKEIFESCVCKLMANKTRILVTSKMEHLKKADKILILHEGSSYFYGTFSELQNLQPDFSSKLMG
In short: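 NBD1 0.2 mg/ml, S200 buffer (50 mM Tris-HCl, 150 mM NaCl, 5 mM MgCl2, 2 mM ATP, 2 mM DTT, pH7.6) + 1% glycerol; cpd in DMSO; oil overlay. Ramp 25→70° C. at 1° C./min, DSLS images every 0.5° C. ΔTagg = Tagg (inflection) − mean DMSO Tagg.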

[2] = target: T2, CFTR (Homo sapiens, UniProt P13569, DEL508-508); test: TECC24 AUC fold over DMSO @10 μM, CFTR-mediated transepithelial chloride transport in CF-HBE cells; assay type: cell-based; settings: test agent AUC divided by DMSO vehicle AUC, primary CF-HBE cells, ΔF508 homozygous donor, 48 hours incubation
T2 construct: Primary human bronchial epithelial cells from a ΔF508 homozygous CF donor; host or cells: primary human bronchial epithelial cells (CF-HBE), ΔF508 homozygous donor
T2 sequence (P13569 with tags, fused parts or gaps DEL508-508): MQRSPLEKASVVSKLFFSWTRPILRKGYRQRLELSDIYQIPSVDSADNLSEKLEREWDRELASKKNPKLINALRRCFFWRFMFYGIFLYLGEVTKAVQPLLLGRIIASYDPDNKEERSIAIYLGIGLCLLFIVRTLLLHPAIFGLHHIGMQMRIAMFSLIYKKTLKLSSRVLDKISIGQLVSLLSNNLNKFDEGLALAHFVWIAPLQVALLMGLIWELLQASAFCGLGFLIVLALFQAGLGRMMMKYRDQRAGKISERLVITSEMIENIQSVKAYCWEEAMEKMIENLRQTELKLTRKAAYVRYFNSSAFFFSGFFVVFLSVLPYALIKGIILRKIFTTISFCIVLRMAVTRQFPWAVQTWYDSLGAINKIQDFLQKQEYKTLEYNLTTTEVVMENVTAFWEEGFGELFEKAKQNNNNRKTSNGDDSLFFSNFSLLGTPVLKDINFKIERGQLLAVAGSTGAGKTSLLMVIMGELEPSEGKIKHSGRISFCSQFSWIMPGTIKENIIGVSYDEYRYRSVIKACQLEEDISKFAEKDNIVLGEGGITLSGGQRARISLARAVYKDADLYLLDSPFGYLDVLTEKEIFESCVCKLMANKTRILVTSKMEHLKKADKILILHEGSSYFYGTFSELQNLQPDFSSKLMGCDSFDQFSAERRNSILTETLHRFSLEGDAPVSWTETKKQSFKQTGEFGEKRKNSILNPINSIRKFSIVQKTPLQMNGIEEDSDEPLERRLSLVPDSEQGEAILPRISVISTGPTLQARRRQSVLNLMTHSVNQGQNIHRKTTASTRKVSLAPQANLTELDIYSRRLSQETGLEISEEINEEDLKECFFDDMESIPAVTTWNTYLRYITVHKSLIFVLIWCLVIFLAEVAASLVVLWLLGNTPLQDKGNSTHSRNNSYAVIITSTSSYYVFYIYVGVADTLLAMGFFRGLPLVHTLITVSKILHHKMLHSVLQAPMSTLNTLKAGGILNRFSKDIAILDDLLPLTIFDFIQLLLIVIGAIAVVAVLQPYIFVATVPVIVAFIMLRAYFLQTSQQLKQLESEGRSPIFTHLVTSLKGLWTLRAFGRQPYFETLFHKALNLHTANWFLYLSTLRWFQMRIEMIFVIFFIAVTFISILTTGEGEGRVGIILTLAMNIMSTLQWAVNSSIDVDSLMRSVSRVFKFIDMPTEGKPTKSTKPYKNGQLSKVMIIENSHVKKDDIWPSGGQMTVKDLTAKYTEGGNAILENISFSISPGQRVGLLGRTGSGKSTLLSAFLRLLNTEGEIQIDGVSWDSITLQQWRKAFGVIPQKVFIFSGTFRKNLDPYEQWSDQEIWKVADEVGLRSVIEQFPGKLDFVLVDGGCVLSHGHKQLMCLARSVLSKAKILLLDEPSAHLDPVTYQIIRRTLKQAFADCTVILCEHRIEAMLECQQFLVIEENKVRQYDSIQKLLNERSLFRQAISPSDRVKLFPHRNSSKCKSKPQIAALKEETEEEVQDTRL
In short: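 ΔF508-homozygous primary bronchial epithelial cells incubated 48 h at 36.5° C with compound (10 μM) in IL-13-containing medium, then TECC24 current-clamp recording in pH 7.4 Hepes saline with benzamil 10 μM, forskolin 10 μM, then CFTR inhibitor-172 20 μM. Equivalent Cl− current AUC between forskolin and inhibitor, expressed as fold over DMSO.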

SMILES | DSLS 3D (100 μM ΔT) [1] | TECC (AUC, 10 μM) [2]
[2H]C([2H])([2H])C1(c2cccc(/C=C/C(=O)O)c2)CCCC(C)(C)CS(=O)(=O)CCc2c(c(F)cc3[nH]ccc23)Oc2ccc(F)c(c2)-c2nc1nn2C (single isomer, unassigned) [Compound 15B, (E)-3-[3-[22,28-difluoro-3,10,10-trimethyl-12,12-dioxo-6-(trideuteriomethyl)-24-oxa-12lambda6-thia-3,4,19,30-tetrazapentacyclo[23.3.1.12,5.015,23.016,20]triaconta-1(29),2(30),4,15,17,20,22,25,27-nonaen-6-yl]phenyl]prop-2-enoic Acid] | B (a value above 5 °C and less than or equal to 10 °C is marked “B”) | A (a TECC value less than 12 is marked “A”)
[2H]C([2H])([2H])C1(c2cccc(/C=C(\C)C(=O)O)c2)CCCC(C)(C)CS(=O)(=O)CCc2c(c(F)cc3[nH]ccc23)Oc2ccc(F)c(c2)-c2nc1nn2C (single isomer, unassigned) [Compound 16A, (E)-3-[3-[22,28-difluoro-3,10,10-trimethyl-12,12-dioxo-6-(trideuteriomethyl)-24-oxa-12lambda6-thia-3,4,19,30-tetrazapentacyclo[23.3.1.12,5.015,23.016,20]triaconta-1(29),2(30),4,15,17,20,22,25,27-nonaen-6-yl]phenyl]-2-methyl-prop-2-enoic acid] | A (an ΔTagg value less than or equal to 5 °C is marked “A”) | A (a TECC value less than 12 is marked “A”)
[2H]C([2H])([2H])C1(c2cccc(/C=C(\C)C(=O)O)c2)CCCC(C)(C)CS(=O)(=O)CCc2c(c(F)cc3[nH]ccc23)Oc2ccc(F)c(c2)-c2nc1nn2C (single isomer, unassigned) [Compound 16B, (E)-3-[3-[22,28-difluoro-3,10,10-trimethyl-12,12-dioxo-6-(trideuteriomethyl)-24-oxa-12lambda6-thia-3,4,19,30-tetrazapentacyclo[23.3.1.12,5.015,23.016,20]triaconta-1(29),2(30),4,15,17,20,22,25,27-nonaen-6-yl]phenyl]-2-methyl-prop-2-enoic acid] | C (a value greater than 10 °C and less than or equal to 25 °C is marked “C”) | A (a TECC value less than 12 is marked “A”)
C/C(=C\c1cc(F)cc(C2(C)CCCC(C)(C)CS(=O)(=O)CCc3c(c(F)c(F)c4[nH]ccc34)Oc3ccc(F)c(c3)-c3nc2nn3C)c1)C(=O)O (single isomer, unassigned) [Compound 17A, (E)-3-(3-fluoro-5-((Z)-26,46,47-trifluoro-11,9,9,13-tetramethyl-7,7-dioxido-11H,41H-3-oxa-7-thia-4(5,4)-indola-1(5,3)-triazola-2(1,3)-benzenacyclotridecaphane-13-yl)phenyl)-2-methylacrylic acid] | B (a value above 5 °C and less than or equal to 10 °C is marked “B”) | A (a TECC value less than 12 is marked “A”)
C/C(=C\c1cc(F)cc(C2(C)CCCC(C)(C)CS(=O)(=O)CCc3c(c(F)c(F)c4[nH]ccc34)Oc3ccc(F)c(c3)-c3nc2nn3C)c1)C(=O)O (single isomer, unassigned) [Compound 17B, (E)-3-(3-fluoro-5-((Z)-26,46,47-trifluoro-11,9,9,13-tetramethyl-7,7-dioxido-1I1H,41H-3-oxa-7-thia-4(5,4)-indola-1(5,3)-triazola-2(1,3)-benzenacyclotridecaphane-13-yl)phenyl)-2-methylacrylic acid] | C (a value greater than 10 °C and less than or equal to 25 °C is marked “C”) | A (a TECC value less than 12 is marked “A”)
[2H]C([2H])([2H])C1(c2cccc(CC(C)C(=O)O)c2F)CCCC(C)(C)CS(=O)(=O)CCc2c(c(F)cc3[nH]ccc23)Oc2ccc(F)c(c2)-c2nc1nn2C (single isomer, unassigned) [Compound 18A, 3-[3-[22,28-difluoro-3,10,10-trimethyl-12,12-dioxo-6-(trideuteriomethyl)-24-oxa-12lambda6-thia-3,4,19,30-tetrazapentacyclo[23.3.1.12,5.015,23.016,20]triaconta-1(29),2(30),4,15,17,20,22,25,27-nonaen-6-yl]-2-fluoro-phenyl]-2-methyl-propanoic acid] | B (a value above 5 °C and less than or equal to 10 °C is marked “B”) | A (a TECC value less than 12 is marked “A”)
[2H]C([2H])([2H])C1(c2cccc(CC(C)C(=O)O)c2F)CCCC(C)(C)CS(=O)(=O)CCc2c(c(F)cc3[nH]ccc23)Oc2ccc(F)c(c2)-c2nc1nn2C (single isomer, unassigned) [Compound 18B, 3-[3-[22,28-difluoro-3,10,10-trimethyl-12,12-dioxo-6-(trideuteriomethyl)-24-oxa-12lambda6-thia-3,4,19,30-tetrazapentacyclo[23.3.1.12,5.015,23.016,20]triaconta-1(29),2(30),4,15,17,20,22,25,27-nonaen-6-yl]-2-fluoro-phenyl]-2-methyl-propanoic acid] | C (a value greater than 10 °C and less than or equal to 25 °C is marked “C”) | B (a value between 12-20 is marked “B”)
CC(Oc1cccc(C2(C)CCCC(C)(C)CS(=O)(=O)CCc3c(c(F)cc4[nH]ccc34)Oc3ccc(F)c(c3)-c3nc2nn3C)c1)C(=O)O (single isomer, unassigned) [Compound 19A, 2-[3-[22,28-difluoro-3,6,10,10-tetramethyl-12,12-dioxo-24-oxa-12 6-thia-3,4,19,30-tetrazapentacyclo[23.3.1.12,5.015,23.016,20]triaconta-1(29),2(30),4,15,17,20,22,25,27-nonaen-6-yl]phenoxy]propanoic Acid] | C (a value greater than 10 °C and less than or equal to 25 °C is marked “C”) | C (a value between 20 and 80 is marked “C”)
CC(Cc1cccc(C2(C#N)CCCC(C)(C)CS(=O)(=O)CCc3c(c(F)cc4[nH]ccc34)Oc3ccc(F)c(c3)-c3nc2nn3C)c1)C(=O)O (single isomer, unassigned) [Compound 20A, 3-[3-[6-cyano-22,28-difluoro-3,10,10-trimethyl-12,12-dioxo-24-oxa-12lambda6-thia-3,4,19,30-tetrazapentacyclo[23.3.1.12,5.015,23.016,20]triaconta-1(29),2(30),4,15,17,20,22,25,27-nonaen-6-yl]phenyl]-2-methyl-propanoic Acid] | C (a value greater than 10 °C and less than or equal to 25 °C is marked “C”) | C (a value between 20 and 80 is marked “C”)
CC(Cc1cccc(C2(C#N)CCCC(C)(C)CS(=O)(=O)CCc3c(c(F)cc4[nH]ccc34)Oc3ccc(F)c(c3)-c3nc2nn3C)c1)C(=O)O (single isomer, unassigned) [Compound 20B, 3-[3-[6-cyano-22,28-difluoro-3,10,10-trimethyl-12,12-dioxo-24-oxa-12lambda6-thia-3,4,19,30-tetrazapentacyclo[23.3.1.12,5.015,23.016,20]triaconta-1(29),2(30),4,15,17,20,22,25,27-nonaen-6-yl]phenyl]-2-methyl-propanoic acid] | A (an ΔTagg value less than or equal to 5 °C is marked “A”) | A (a TECC value less than 12 is marked “A”)
CC1(C)CCCC(c2cccc(CCC(=O)O)c2)n2cc(C#N)c(n2)-c2cc(ccc2F)Oc2c(F)cc3[nH]ccc3c2CCS(=O)(=O)C1 (single isomer, unassigned) [Compound 22B, 3-[3-[3-cyano-22,28-difluoro-10,10-dimethyl-12,12-dioxo-24-oxa-12lambda6-thia-5,19,30-triazapentacyclo[23.3.1.12,5.015,23.016,20]triaconta-1(29),2(30),3,15,17,20,22,25,27-nonaen-6-yl]phenyl]propanoic acid] | A (an ΔTagg value less than or equal to 5 °C is marked “A”) | B (a value between 12-20 is marked “B”)
CC1(C)CCCC(c2cccc(CCC(=O)O)c2)n2cc(C#N)c(n2)-c2cc(ccc2F)Oc2c(F)cc3[nH]ccc3c2CCS(=O)(=O)C1 (single isomer, unassigned) [Compound 22C, 3-[3-[3-cyano-22,28-difluoro-10,10-dimethyl-12,12-dioxo-24-oxa-12lambda6-thia-5,19,30-triazapentacyclo[23.3.1.12,5.015,23.016,20]triaconta-1(29),2(30),3,15,17,20,22,25,27-nonaen-6-yl]phenyl]propanoic acid] | C (a value greater than 10 °C and less than or equal to 25 °C is marked “C”) | C (a value between 20 and 80 is marked “C”)
CC1(C)CCCC(c2cccc(CCC(=O)O)c2)n2ccc(n2)-c2cc(ccc2F)Oc2c(F)cc3[nH]ccc3c2CCS(=O)(=O)C1 (single isomer, unassigned) [Compound 24A, 3-[3-[22,28-difluoro-10,10-dimethyl-12,12-dioxo-24-oxa-12lambda6-thia-5,19,30-triazapentacyclo[23.3.1.12,5.015,23.016,20]triaconta-1(29),2(30),3,15,17,20,22,25,27-nonaen-6-yl]phenyl]propanoic Acid] | B (a value above 5 °C and less than or equal to 10 °C is marked “B”) | A (a TECC value less than 12 is marked “A”)
